Patent publication US20220168427A1 (Ranok Therapeutics (Hangzhou) Co. Ltd., priority 2019, published 2022)

Assays:
HSP90α = HSP90α (Homo sapiens, UniProt P07900); assay: HSP90α Binding Fluorescent Polarization (FP) Assay; conditions: competition with FITC-geldanamycin; read-out: HSP90 Binding Potency
Experimental: HSP90α Binding Fluorescent Polarization (FP) Assay
A master mix was prepared with assay buffer, BSA and FITC-geldanamycin. In a 96-well plate, a serial 3-fold dilution of each compound was prepared ranging from 40 μM down until 2.0 nM. Also in a 96-well plate, recombinant HSP90α protein was diluted to 28 μg/ml. Then, in a 384-well plate, 10 μl of master mix and 5 μl of compound dilution were added per well to duplicate wells and mixed by brief shaking. Then 5 μl of diluted HSP90α protein was added per well, mixed by brief shaking, incubated at 25° C. for 30, 60 and 120 min and fluorescence was measured on an EnVision Plate Reader. Background-subtracted mP values were calculated from EnVision raw data and a four-parameter “log[inhibitor] vs. response” curve was fitted using GraphPad Prism 7.0.

MV4-11 cells = assay: MV4-11 Cell Cytotoxicity Assay; type: cell-based, human; conditions: human, MV4-11 cells, CCK-8
Description: % Inhibition=100−(D−B)/(S−B)*100%.
S: The absorbance of the maximum (cells with DMSO)
B: The absorbance of the minimum (medium with DMSO)

BRD4 (BD1+BD2) = biological target: T1, BRD4 (BD1+BD2) (Homo sapiens, UniProt O60885); conditions: read-out: BRD4 Binding Potency
T1 construct: 1.8 μg/ml recombinant BRD4 (BD1+BD2 domains) protein
Experimental: A master mix was prepared with assay buffer, 1.8 μg/ml recombinant BRD4 (BD1+BD2 domains) protein, and 200-fold dilutions of Tb-labeled donor and dye-labeled acceptor. 40-fold dilutions of acetylated and non-acetylated ligands were prepared in 1×BRD TR-FRET assay buffer. Also, a serial 3-fold dilution of each compound was prepared ranging from 40 μM down until 2.0 nM. In a 384-well plate, 5 μl diluted ligand and 5 μl of compound dilution were added per well to duplicate wells and mixed by brief shaking. Then 10 μl of master mix was added per well, mixed by brief shaking, incubated at 25° C. for 2 hr and fluorescence was measured on an EnVision Plate Reader. The 665 nm/615 nm ratio was calculated from EnVision raw data. Data were normalized using whole-plate averages of “positive” and “negative” readings. A four-parameter “log[inhibitor] vs. response” curve was fitted using GraphPad Prism 7.0.

Row | SMILES | IC50 (HSP90α) [nM] | IC50 at 72 h (MV4-11 cells) [nM] | IC50 (BRD4 (BD1+BD2)) [nM]
1 | CCc1cc(-c2nnc(C(=O)NCC(F)(F)F)n2-c2ccc(CN3CCN(CC4CCN(C(=O)C[C@@H]5N=C(c6ccc(Cl)cc6)c6c(sc(C)c6C)-n6c(C)nnc65)CC4)CC3)cc2)c(O)cc1O [Compound 14, 4-(4-((4-((1-(2-((6S)-4-(4-chlorophenyl)-2,3,9-trimethyl-6H-thieno[3,2-f][1,2,4]triazolo[4,3-a][1,4]diazepin-6-yl)acetyl)piperidin-4-yl)methyl)piperazin-1-yl)methyl)phenyl)-5-(5-ethyl-2,4-dihydroxyphenyl)-N-(2,2,2-trifluoroethyl)-4H-1,2,4-triazole-3-carboxamide, trifluoroacetic acid] | 100 to 1000 | < 100 | > 1000
2 | Cc1cc(-c2nnc(C(=O)NCC(F)(F)F)n2-c2ccc(CN3CCN(CC4CCN(C(=O)C[C@@H]5N=C(c6ccc(Cl)cc6)c6c(sc(C)c6C)-n6c(C)nnc65)CC4)CC3)cc2)c(O)cc1O [Compound 15, 4-(4-((4-((1-(2-((6S)-4-(4-chlorophenyl)-2,3,9-trimethyl-6H-thieno[3,2-f][1,2,4]triazolo[4,3-a][1,4]diazepin-6-yl)acetyl)piperidin-4-yl)methyl)piperazin-1-yl)methyl)phenyl)-5-(2,4-dihydroxy-5-methylphenyl)-N-(2,2,2-trifluoroethyl)-4H-1,2,4-triazole-3-carboxamide, trifluoroacetic acid] | 100 to 1000 | < 100 | > 1000
3 | Cc1sc2c(c1C)C(c1ccc(Cl)cc1)=N[C@@H](CC(=O)N1CCC(CN3CCN(Cc4ccc(-n5c(O)nnc5-c5cc(C(C)C)c(O)cc5O)cc4F)CC3)CC1)c1nnc(C)n1-2 [Compound 17, (S)-2-(4-(4-chlorophenyl)-2,3,9-trimethyl-6H-thieno[3,2-f][1,2,4]triazolo[4,3-a][1,4]diazepin-6-yl)-1-(4-((4-(4-(3-(2,4-dihydroxy-5-isopropylphenyl)-5-hydroxy-4H-1,2,4-triazol-4-yl)-2-fluorobenzyl)piperazin-1-yl)methyl)piperidin-1-yl)ethan-1-one, trifluoroacetic acid] | 100 to 1000 | < 100 | > 1000
4 | Cc1nn(-c2ccc(C(N)=O)c(NCCOCCNC(=O)C[C@@H]3N=C(c4ccc(Cl)cc4)c4c(sc(C)c4C)-n4c(C)nnc43)c2)c2c1C(=O)CC(C)(C)C2 [Compound 20, 2-((2-(2-(2-((6S)-4-(4-chlorophenyl)-2,3,9-trimethyl-6H-thieno[3,2-f][1,2,4]triazolo[4,3-a][1,4]diazepin-6-yl)acetamido)ethoxy)ethyl)amino)-4-(3,6,6-trimethyl-4-oxo-4,5,6,7-tetrahydro-1H-indazol-1-yl)benzamide] | > 1000 | 100 to 1000 | > 1000
5 | Cc1nn(-c2ccc(C(N)=O)c(NCCOCCOCCNC(=O)C[C@@H]3N=C(c4ccc(Cl)cc4)c4c(sc(C)c4C)-n4c(C)nnc43)c2)c2c1C(=O)CC(C)(C)C2 [Compound 21, 2-((2-(2-(2-(2-((6S)-4-(4-chlorophenyl)-2,3,9-trimethyl-6H-thieno[3,2-f][1,2,4]triazolo[4,3-a][1,4]diazepin-6-yl)acetamido)ethoxy)ethoxy)ethyl)amino)-4-(3,6,6-trimethyl-4-oxo-4,5,6,7-tetrahydro-1H-indazol-1-yl)benzamide, trifluoroacetic acid] | > 1000 | 100 to 1000 | > 1000
6 | Cc1nn(-c2ccc(C(N)=O)c(NCCOCCC3CCN(C(=O)C[C@@H]4N=C(c5ccc(Cl)cc5)c5c(sc(C)c5C)-n5c(C)nnc54)CC3)c2)c2c1C(=O)CC(C)(C)C2 [Compound 23, 2-((2-(2-(1-(2-((6S)-4-(4-chlorophenyl)-2,3,9-trimethyl-6H-thieno[3,2-f][1,2,4]triazolo[4,3-a][1,4]diazepin-6-yl)acetyl)piperidin-4-yl)ethoxy)ethyl)amino)-4-(3,6,6-trimethyl-4-oxo-4,5,6,7-tetrahydro-1H-indazol-1-yl)benzamide, trifluoroacetic acid] | > 1000 | 100 to 1000 | > 1000
7 | Cc1nn(-c2ccc(C(N)=O)c(NCCOCCN3CCN(C(=O)C[C@@H]4N=C(c5ccc(Cl)cc5)c5c(sc(C)c5C)-n5c(C)nnc54)CC3)c2)c2c1C(=O)CC(C)(C)C2 [Compound 24, 2-((2-(2-(4-(2-((6S)-4-(4-chlorophenyl)-2,3,9-trimethyl-6H-thieno[3,2-f][1,2,4]triazolo[4,3-a][1,4]diazepin-6-yl)acetyl)piperazin-1-yl)ethoxy)ethyl)amino)-4-(3,6,6-trimethyl-4-oxo-4,5,6,7-tetrahydro-1H-indazol-1-yl)benzamide] | > 1000 | 100 to 1000 | > 1000
8 | CC[C@@H](C)Nc1cc(C(=O)NC2C[C@H]3CC[C@H](C2)N3c2ccc(C(=O)c3ccc(CN4CCN(CC5CCN(C(=O)C[C@@H]6N=C(c7ccc(Cl)cc7)c7c(sc(C)c7C)-n7c(C)nnc76)CC5)CC4)cc3)cn2)c(C)cc1C(N)=O (stereo partly drawn) [Compound 25, 5-(((R)-sec-butyl)amino)-N1-((1R,3r,5S)-8-(5-(4-((4-((1-(2-((S)-4-(4-chlorophenyl)-2,3,9-trimethyl-6H-thieno[3,2-f][1,2,4]triazolo[4,3-a][1,4]diazepin-6-yl)acetyl)piperidin-4-yl)methyl)piperazin-1-yl)methyl)benzoyl)pyridin-2-yl)-8-azabicyclo[3.2.1]octan-3-yl)-2-methylterephthalamide] | > 1000 | 100 to 1000 | 100 to 1000
9 | CC[C@@H](C)Nc1cc(C(=O)NC2C[C@H]3CC[C@H](C2)N3c2ccc(C(=O)Nc3ccc(CN4CCN(CC5CCN(C(=O)C[C@@H]6N=C(c7ccc(Cl)cc7)c7c(sc(C)c7C)-n7c(C)nnc76)CC5)CC4)cc3)cn2)c(C)cc1C(N)=O (stereo partly drawn) [Compound 26, 5-((R)-sec-butylamino)-N1-((1R,5R)-8-(5-((4-((4-((1-(2-((6S)-4-(4-chlorophenyl)-2,3,9-trimethyl-6H-thieno[3,2-f][1,2,4]triazolo[4,3-a][1,4]diazepin-6-yl)acetyl)piperidin-4-yl)methyl)piperazin-1-yl)methyl)phenyl)carbamoyl)pyridin-2-yl)-8-azabicyclo[3.2.1]octan-3-yl)-2-methylterephthalamide, formic acid] | > 1000 | < 100 | 100 to 1000
10 | CCc1cc(-c2nnc(O)n2-c2ccc(CN3CCN(CC4CCN(C(=O)C[C@H]5N=C(c6ccc(Cl)cc6)c6c(sc(C)c6C)-n6c(C)nnc65)CC4)CC3)cc2)c(O)cc1O [Compound 27, 2-((6R)-4-(4-chlorophenyl)-2,3,9-trimethyl-6H-thieno[3,2-f][1,2,4]triazolo[4,3-a][1,4]diazepin-6-yl)-1-(4-((4-(4-(3-(5-ethyl-2,4-dihydroxyphenyl)-5-hydroxy-4H-1,2,4-triazol-4-yl)benzyl)piperazin-1-yl)methyl)piperidin-1-yl)ethanone, trifluoroacetic acid] | 100 to 1000 | < 100 | > 1000
11 | Cc1sc2c(c1C)C(c1ccc(Cl)cc1)=N[C@@H](CC(=O)NCc1ccc(-n3c(S)nnc3-c3cc(C(C)C)c(O)cc3O)cc1)c1nnc(C)n1-2 [Compound 28, (S)-2-(4-(4-chlorophenyl)-2,3,9-trimethyl-6H-thieno[3,2-f][1,2,4]triazolo[4,3-a][1,4]diazepin-6-yl)-N-(4-(3-(2,4-dihydroxy-5-isopropylphenyl)-5-mercapto-4H-1,2,4-triazol-4-yl)benzyl)acetamide] | 100 to 1000 | 100 to 1000 | 100 to 1000
12 | Cc1sc2c(c1C)C(c1ccc(Cl)cc1)=N[C@@H](CC(=O)N1CCN(C(=O)C3CCN(c4ccc(-n5c(O)nnc5-c5cc(C(C)C)c(O)cc5O)cc4)CC3)CC1)c1nnc(C)n1-2 [Compound 29, (S)-2-(4-(4-chlorophenyl)-2,3,9-trimethyl-6H-thieno[3,2-f][1,2,4]triazolo[4,3-a][1,4]diazepin-6-yl)-1-(4-(1-(4-(3-(2,4-dihydroxy-5-isopropylphenyl)-5-hydroxy-4H-1,2,4-triazol-4-yl)phenyl)piperidine-4-carbonyl)piperazin-1-yl)ethan-1-one] | > 1000 | 100 to 1000 | > 1000
13 | Cc1sc2c(c1C)C(c1ccc(Cl)cc1)=N[C@@H](CC(=O)NCCOc1ccc(-n3c(S)nnc3-c3cc(C(C)C)c(O)cc3O)cc1)c1nnc(C)n1-2 [Compound 32, (S)-2-(4-(4-chlorophenyl)-2,3,9-trimethyl-6H-thieno[3,2-f][1,2,4]triazolo[4,3-a][1,4]diazepin-6-yl)-N-(2-(4-(3-(2,4-dihydroxy-5-isopropylphenyl)-5-mercapto-4H-1,2,4-triazol-4-yl)phenoxy)ethyl)acetamide] | 100 to 1000 | 100 to 1000 | > 1000
